Source: BigSolDB 2.1

## Nc1ccc([N+](=O)[O-])cc1[N+](=O)[O-]
In acetone, 278.15 K
  solubility (mole fraction): 0.0281
In acetone, 280.65 K
  solubility (mole fraction): 0.0304
In acetone, 283.15 K
  solubility (mole fraction): 0.0328
In acetone, 285.65 K
  solubility (mole fraction): 0.0355
In acetone, 288.15 K
  solubility (mole fraction): 0.0381
In acetone, 290.65 K
  solubility (mole fraction): 0.0407
In acetone, 293.15 K
  solubility (mole fraction): 0.0437
In acetone, 295.65 K
  solubility (mole fraction): 0.0467
In acetone, 298.15 K
  solubility (mole fraction): 0.0497
In acetone, 300.65 K
  solubility (mole fraction): 0.0531
In acetone, 303.15 K
  solubility (mole fraction): 0.0565
In acetone, 305.65 K
  solubility (mole fraction): 0.0604
In acetone, 308.15 K
  solubility (mole fraction): 0.0642
In acetone, 310.65 K
  solubility (mole fraction): 0.0682
In acetone, 313.15 K
  solubility (mole fraction): 0.0723
In acetone, 315.65 K
  solubility (mole fraction): 0.0769
In acetone, 318.15 K
  solubility (mole fraction): 0.0815
In acetonitrile, 278.15 K
  solubility (mole fraction): 0.00772
In acetonitrile, 280.65 K
  solubility (mole fraction): 0.00829
In acetonitrile, 283.15 K
  solubility (mole fraction): 0.00893
In acetonitrile, 285.65 K
  solubility (mole fraction): 0.0098
In acetonitrile, 288.15 K
  solubility (mole fraction): 0.0108
In acetonitrile, 290.65 K
  solubility (mole fraction): 0.0118
In acetonitrile, 293.15 K
  solubility (mole fraction): 0.0127
In acetonitrile, 295.65 K
  solubility (mole fraction): 0.0138
In acetonitrile, 298.15 K
  solubility (mole fraction): 0.0149
In acetonitrile, 300.65 K
  solubility (mole fraction): 0.0161
In acetonitrile, 303.15 K
  solubility (mole fraction): 0.0174
In acetonitrile, 305.65 K
  solubility (mole fraction): 0.0188
In acetonitrile, 308.15 K
  solubility (mole fraction): 0.0203
In acetonitrile, 310.65 K
  solubility (mole fraction): 0.0216
In acetonitrile, 313.15 K
  solubility (mole fraction): 0.023
In acetonitrile, 315.65 K
  solubility (mole fraction): 0.0247
In acetonitrile, 318.15 K
  solubility (mole fraction): 0.0264
In ethanol, 278.15 K
  solubility (mole fraction): 0.00126
In ethanol, 280.65 K
  solubility (mole fraction): 0.0014
In ethanol, 283.15 K
  solubility (mole fraction): 0.00154
In ethanol, 285.65 K
  solubility (mole fraction): 0.00173
In ethanol, 288.15 K
  solubility (mole fraction): 0.00193
In ethanol, 290.65 K
  solubility (mole fraction): 0.00211
In ethanol, 293.15 K
  solubility (mole fraction): 0.00232
In ethanol, 295.65 K
  solubility (mole fraction): 0.00254
In ethanol, 298.15 K
  solubility (mole fraction): 0.00278
In ethanol, 300.65 K
  solubility (mole fraction): 0.00304
In ethanol, 303.15 K
  solubility (mole fraction): 0.00331
In ethanol, 305.65 K
  solubility (mole fraction): 0.00359
In ethanol, 308.15 K
  solubility (mole fraction): 0.00391
In ethanol, 310.65 K
  solubility (mole fraction): 0.00428
In ethanol, 313.15 K
  solubility (mole fraction): 0.00468
In ethanol, 315.65 K
  solubility (mole fraction): 0.00511
In ethanol, 318.15 K
  solubility (mole fraction): 0.00555
In ethyl acetate, 278.15 K
  solubility (mole fraction): 0.0116
In ethyl acetate, 280.65 K
  solubility (mole fraction): 0.0127
In ethyl acetate, 283.15 K
  solubility (mole fraction): 0.0138
In ethyl acetate, 285.65 K
  solubility (mole fraction): 0.0151
In ethyl acetate, 288.15 K
  solubility (mole fraction): 0.0163
In ethyl acetate, 290.65 K
  solubility (mole fraction): 0.0177
In ethyl acetate, 293.15 K
  solubility (mole fraction): 0.0191
In ethyl acetate, 295.65 K
  solubility (mole fraction): 0.0205
In ethyl acetate, 298.15 K
  solubility (mole fraction): 0.0221
In ethyl acetate, 300.65 K
  solubility (mole fraction): 0.0238
In ethyl acetate, 303.15 K
  solubility (mole fraction): 0.0257
In ethyl acetate, 305.65 K
  solubility (mole fraction): 0.0278
In ethyl acetate, 308.15 K
  solubility (mole fraction): 0.0301
In ethyl acetate, 310.65 K
  solubility (mole fraction): 0.0324
In ethyl acetate, 313.15 K
  solubility (mole fraction): 0.035
In ethyl acetate, 315.65 K
  solubility (mole fraction): 0.0374
In ethyl acetate, 318.15 K
  solubility (mole fraction): 0.0403
In isopropanol, 278.15 K
  solubility (mole fraction): 0.000854
In isopropanol, 280.65 K
  solubility (mole fraction): 0.00097
In isopropanol, 283.15 K
  solubility (mole fraction): 0.0011
In isopropanol, 285.65 K
  solubility (mole fraction): 0.00125
In isopropanol, 288.15 K
  solubility (mole fraction): 0.00142
In isopropanol, 290.65 K
  solubility (mole fraction): 0.00159
In isopropanol, 293.15 K
  solubility (mole fraction): 0.00177
In isopropanol, 295.65 K
  solubility (mole fraction): 0.002
In isopropanol, 298.15 K
  solubility (mole fraction): 0.00227
In isopropanol, 300.65 K
  solubility (mole fraction): 0.00253
In isopropanol, 303.15 K
  solubility (mole fraction): 0.00281
In isopropanol, 305.65 K
  solubility (mole fraction): 0.00313
In isopropanol, 308.15 K
  solubility (mole fraction): 0.00346
In isopropanol, 310.65 K
  solubility (mole fraction): 0.00383
In isopropanol, 313.15 K
  solubility (mole fraction): 0.00426
In isopropanol, 315.65 K
  solubility (mole fraction): 0.00469
In isopropanol, 318.15 K
  solubility (mole fraction): 0.00522
In methanol, 278.15 K
  solubility (mole fraction): 0.00126
In methanol, 280.65 K
  solubility (mole fraction): 0.00138
In methanol, 283.15 K
  solubility (mole fraction): 0.00156
In methanol, 285.65 K
  solubility (mole fraction): 0.00173
In methanol, 288.15 K
  solubility (mole fraction): 0.00192
In methanol, 290.65 K
  solubility (mole fraction): 0.00212
In methanol, 293.15 K
  solubility (mole fraction): 0.00232
In methanol, 295.65 K
  solubility (mole fraction): 0.00253
In methanol, 298.15 K
  solubility (mole fraction): 0.00276
In methanol, 300.65 K
  solubility (mole fraction): 0.00301
In methanol, 303.15 K
  solubility (mole fraction): 0.00327
In methanol, 305.65 K
  solubility (mole fraction): 0.00356
In methanol, 308.15 K
  solubility (mole fraction): 0.00386
In methanol, 310.65 K
  solubility (mole fraction): 0.00421
In methanol, 313.15 K
  solubility (mole fraction): 0.00456
In methanol, 315.65 K
  solubility (mole fraction): 0.00493
In methanol, 318.15 K
  solubility (mole fraction): 0.00537
In n-butanol, 278.15 K
  solubility (mole fraction): 0.00144
In n-butanol, 280.65 K
  solubility (mole fraction): 0.00154
In n-butanol, 283.15 K
  solubility (mole fraction): 0.00172
In n-butanol, 285.65 K
  solubility (mole fraction): 0.00193
In n-butanol, 288.15 K
  solubility (mole fraction): 0.00216
In n-butanol, 290.65 K
  solubility (mole fraction): 0.00243
In n-butanol, 293.15 K
  solubility (mole fraction): 0.00271
In n-butanol, 295.65 K
  solubility (mole fraction): 0.00299
In n-butanol, 298.15 K
  solubility (mole fraction): 0.00329
In n-butanol, 300.65 K
  solubility (mole fraction): 0.00365
In n-butanol, 303.15 K
  solubility (mole fraction): 0.00406
In n-butanol, 305.65 K
  solubility (mole fraction): 0.00447
In n-butanol, 308.15 K
  solubility (mole fraction): 0.00494
In n-butanol, 310.65 K
  solubility (mole fraction): 0.00543
In n-butanol, 313.15 K
  solubility (mole fraction): 0.00589
In n-butanol, 315.65 K
  solubility (mole fraction): 0.00646
In n-butanol, 318.15 K
  solubility (mole fraction): 0.00712
In n-propanol, 278.15 K
  solubility (mole fraction): 0.00103
In n-propanol, 280.65 K
  solubility (mole fraction): 0.00116
In n-propanol, 283.15 K
  solubility (mole fraction): 0.00131
In n-propanol, 285.65 K
  solubility (mole fraction): 0.00146
In n-propanol, 288.15 K
  solubility (mole fraction): 0.00163
In n-propanol, 290.65 K
  solubility (mole fraction): 0.0018
In n-propanol, 293.15 K
  solubility (mole fraction): 0.00198
In n-propanol, 295.65 K
  solubility (mole fraction): 0.00217
In n-propanol, 298.15 K
  solubility (mole fraction): 0.00238
In n-propanol, 300.65 K
  solubility (mole fraction): 0.00262
In n-propanol, 303.15 K
  solubility (mole fraction): 0.00287
In n-propanol, 305.65 K
  solubility (mole fraction): 0.00314
In n-propanol, 308.15 K
  solubility (mole fraction): 0.00346
In n-propanol, 310.65 K
  solubility (mole fraction): 0.0038
In n-propanol, 313.15 K
  solubility (mole fraction): 0.00413
In n-propanol, 315.65 K
  solubility (mole fraction): 0.00452
In n-propanol, 318.15 K
  solubility (mole fraction): 0.00493
In toluene, 278.15 K
  solubility (mole fraction): 0.00033
In toluene, 280.65 K
  solubility (mole fraction): 0.000383
In toluene, 283.15 K
  solubility (mole fraction): 0.000443
In toluene, 285.65 K
  solubility (mole fraction): 0.000511
In toluene, 288.15 K
  solubility (mole fraction): 0.000573
In toluene, 290.65 K
  solubility (mole fraction): 0.000642
In toluene, 293.15 K
  solubility (mole fraction): 0.000724
In toluene, 295.65 K
  solubility (mole fraction): 0.000814
In toluene, 298.15 K
  solubility (mole fraction): 0.000917
In toluene, 300.65 K
  solubility (mole fraction): 0.00102
In toluene, 303.15 K
  solubility (mole fraction): 0.00114
In toluene, 305.65 K
  solubility (mole fraction): 0.00128
In toluene, 308.15 K
  solubility (mole fraction): 0.00142
In toluene, 310.65 K
  solubility (mole fraction): 0.00158
In toluene, 313.15 K
  solubility (mole fraction): 0.00175
In toluene, 315.65 K
  solubility (mole fraction): 0.00193
In toluene, 318.15 K
  solubility (mole fraction): 0.00217
